Results reported in patent publication US20190033294A1, “METHODS OF SCREENING DRUGS FOR CANCER TREATMENT USING CELLS GROWN ON A FIBER-INSPIRED SMART SCAFFOLD” (UNIVERSITY OF SOUTH FLORIDA, priority 2016, published 2019).
Counter-ions that a name gives are not always drawn. Like-named read-outs stand apart in the source and are kept apart here. Each block holds one molecule with its values, some of them ahead of it. Starred links: 1 amine or outer side, 2 acyl side, 3 side chain; linkers in the order of their positions; H or OH if unused. Positions of bridges follow the written chain, without caps; N, C: chain ends. Non-standard residues stand in square brackets, D forms with d. Residues, ends and D or L forms follow the SMILES beside them. Chains are numbered I, II in the order given. Actinocin(9to1) = Cc1c2oc3c(C)ccc(C(=O)[*:1])c3nc-2c(C(=O)[*:2])c(N)c1=O; NMeV = CN[C@H](C(=O)O)C(C)C; Sar = CNCC(=O)O

Experiments:
HT-29 cells = test: Presto Blue cell viability, 2D monolayer; conditions: monolayer culture; nine drugs at 0.1-20 μM, 72 hours
Experimental: HT-29 cells were cultured in 2D monolayer for 24 hours. After 24 hours, the nine FDA-approved anticancer drugs were individually added to the cells at concentrations of 0.1, 1, 10, and 20 μM, and the cells were incubated for 72 hours, at which point viability of the cells was quantitated using Presto Blue assay (Life Technologies) according to the manufacturer's protocol. Raw fluorescence values of the treated groups were normalized to the average of the control and graphed in GraphPad Prism.
HT-29 cells were cultured in 2D monolayer for 24 hours. After 24 hours, the nine FDA-approved anticancer drugs were individually added to the cells at concentrations of 0.1, 1, 10, and 20 μM, and the cells were incubated for 72 hours, at which point viability of the cells was quantitated using Presto Blue assay (Life Technologies) according to the manufacturer's protocol. Raw fluorescence values of the treated groups were normalized to the average of the untreated controls and graphed in GraphPad Prism.
HT-29 cells were either grown in the standard 2-dimensional (2D) monolayer culture or in a 3-dimensional (3D) culture system using a novel fibrous scaffold. […] The monolayer cells and the 3D tumoroids were independently treated with increasing concentrations of nine FDA approved anti-cancer drugs. After 72 hours post-treatment a Presto Blue Cell Viability Assay (for monolayer) and CellTiter-Glo Viability Assay (for tumoroids) were used to quantitate the drug-induced cell death. The drug treated viability readings were normalized to the viability readings from untreated control. The percent viability was used to calculate the IC50 values of all the nine drugs in HT-29 cells.

HT-29 tumoroids = test: CellTiter-Glo viability, tumoroids on 3D fibrous scaffold; conditions: scaffold culture; nine drugs at 0.1-20 μM, 72 hours
Experimental: HT-29 cells were cultured in the 3D fibrous scaffold from day 1 to day 7, at which point the nine FDA-approved anticancer drugs were individually added to the cells at concentrations of 0.1, 1, 10, and 20 μM. The cells were incubated for an additional 72 hours, at which point viability of the cells was quantitated using Celltiter-Glo assay (Promega) according to the manufacturer's protocol. Raw luminescence values of the treated groups were normalized to the average of the untreated controls and graphed in GraphPad Prism.
HT-29 cells were either grown in the standard 2-dimensional (2D) monolayer culture or in a 3-dimensional (3D) culture system using a novel fibrous scaffold. […] The monolayer cells and the 3D tumoroids were independently treated with increasing concentrations of nine FDA approved anti-cancer drugs. After 72 hours post-treatment a Presto Blue Cell Viability Assay (for monolayer) and CellTiter-Glo Viability Assay (for tumoroids) were used to quantitate the drug-induced cell death. The drug treated viability readings were normalized to the viability readings from untreated control.

MCF-7 tumoroids = test: Presto-blue cell viability, tumoroids on FiSS scaffold
Experimental: (§4) (A) MCF-7 and MCF-7/dox cells were cultured on the scaffold for 6 days and then visualized using Nuc-blue. (B) MCF-7 and MCF-7/dox cells were cultured on or on scaffold for 6 days and then cells were treated with increasing concentration of Doxorubicin. Forty-eight hrs post-treatment, cell viability was analyzed using presto-blue as per manufacturer's instructions. The % cell death was analyzed and the IC50 calculated using Graph Pad Prism. Data are represented as Mean±SEM of three independent experiments performed in triplicates (*p<0.05).
(§5) MCF-7 and MCF-7/dox cells were cultured on monolayer or on scaffold in normoxia or hypoxia for 6 days. At the end of culture period, the monolayer cells and tumoroids were treated with increasing concentration of Actinomycin D. Forty-eight hrs post-treatment, cell viability was analyzed using presto-blue as per manufacturer's instructions. The % cell death was analyzed and the IC50 calculated using Graph Pad Prism. Data are represented as Mean±SEM of three independent experiments performed in triplicates (*p<0.05).
(§6) To conduct a high through put screening for compounds that induce cell death in breast cancer, the FDA-approved Oncology Diversity set was obtained from NCI in 96 well plate format with each well containing 20 μl of 10 mM drug stock. All different cell lines were cultured either in regular 96 wells plate without scaffold (served as monolayer) and with FiSS (scaffold culture) in complete medium. For scaffold culture, 75% medium was carefully removed and replaced with 150 μl of fresh medium every alternate day. After five/six days of scaffold culture, cells were stained with NucBlue (Fisher Scientific) to check if tumoroids had formed. Drugs were added in triplicates with varying concentrations. The cells were incubated for 72 hrs in a humidified atmosphere under 5% CO2 at 37° C., then cell viability was measured using Presto-blue (Fisher Scientific).

MCF-7/dox cells = test: Presto-blue cell viability, monolayer culture; conditions: for potency in high throughput screening: NCI Oncology set, 4 point log-dose 0.1 to 100 μM, 72 hrs
Experimental: (§7) (B) MCF-7 and MCF-7/dox cells were cultured on or on scaffold for 6 days and then cells were treated with increasing concentration of Doxorubicin. Forty-eight hrs post-treatment, cell viability was analyzed using presto-blue as per manufacturer's instructions. The % cell death was analyzed and the IC50 calculated using Graph Pad Prism. Data are represented as Mean±SEM of three independent experiments performed in triplicates (*p<0.05).
(§8) (A) MCF-7 and (B) MCF-7/dox cells were cultured on monolayer and then treated with increasing concentration of compounds from NCI Approved Oncology Drugs Set VII. Forty-eight hrs post-treatment, cell viability was analyzed using presto-blue as per manufacturer's instructions. The % cell death was analyzed and the IC50 calculated using Graph Pad Prism. Data are represented as Mean of experiments performed in triplicates.
(§9) To conduct a high through put screening for compounds that induce cell death in breast cancer, the FDA-approved Oncology Diversity set was obtained from NCI in 96 well plate format with each well containing 20 μl of 10 mM drug stock. All different cell lines were cultured either in regular 96 wells plate without scaffold (served as monolayer) and with FiSS (scaffold culture) in complete medium. […] Drugs were added in triplicates with varying concentrations. The cells were incubated for 72 hrs in a humidified atmosphere under 5% CO2 at 37° C., then cell viability was measured using Presto-blue (Fisher Scientific). […] MCF-7 ad MCF-7/dox were used in a monolayer in a 96 well plate, and then treated with a NCI Oncology diversity set containing FDA-approved anti-cancer drugs. Each drug was used in a 4 point log-dose from 0.1 to 100 μM. Untreated cells were used as control and the cell death was estimated at the end of 72 hrs post-treatment.

[1] = test system: Sox2 in MCF-7/dox tumoroids; test: Sox2 expression in tumoroids after drug treatment (western blot / RT-PCR); format: cell-based, human
Experimental: (§1) MCF-7 and MCF-7/dox were allowed to form tumoroids on scaffold for 6 days following which they were exposed to Actinomycin D for 24 hrs. At the end of 24 hrs the tumoroids were dissociated and processed for either western blotting (A) or real-time RT-PCR (B). Sox2 protein and transcript levels were analyzed and normalized to HPRT (C) Second generation MCF-7 tumoroids were cultured in a 96 well plate for 6 days. Tumoroids were treated with increasing concentrations of Actinomycin D on day 4 in groups of 4 wells. After a 48 hr treatment, cell viability was assayed using Cell Titer Glo(Promega) on day 6. Viability was calculated as a percent of control untreated wells and graphed using Graph Pad Prism software. (D) Tumoroids were treated with Actinomycin D for 48 hr. Following treatment tumoroids were dissociated and cells were co-stained using FITC conjugated CD44 antibody and Alexa Fluor-647 conjugated CD24 antibody. CD44^highCD24^low stem-like populations in MCF7 tumoroids were assessed by flow cytometer. Data was collected using a BD FACS Canto 2 flow cytometer.
(§2) MCF-7 and MCF-7/dox cells were seeded as monolayer and 3D tumoroid cultures in 96 well plates. […] Collagenase was used to detach the cells from the plate/scaffold platform. The cell pellet was resuspended in RIPA buffer and vortexed for 30 min followed by centrifugation at 4° C. at 13000 rpm to collect the protein extract. Protein content was determined by using BCA method and followed for western blot procedure. Antibodies for Nanog, Oct 4a, Sox2, and GAPDH/HPRT were obtained from Cell Signaling.
(§3) To determine the effects of Actinomycin D on the Sox2 protein levels in both MCF-7 and MCF-7/dox cell lines, MCF7 wt and MCF7-dox cells were seeded as monolayer and 3D tumoroid cultures (both in controls and cobalt chloride (CoCl2) scaffold cultures) in 96 well plates. […] Collagenase was used to detach the cells from the plate/scaffold platform. The cell pellet was then dissolved in trizol and RNA was isolated. RT-PCR was performed using 2 step process namely 1) cDNA synthesis using DNAase-1 treated RNA and 2) PCR was performed using primers of the gene of interest. […] The decrease in Sox2 expression was 2 fold in both the cell lines tested when compared to the control untreated tumoroids (2.05 vs. 0.75 pixel density in MCF-7 and 1.05 vs. 0.5 pixel density in MCF-7/dox) (FIG. 8B). […] Actinomycin D targets and down-regulates the expression of Sox2 resulting in depletion of stem-like cell population, which hampers the breast cancer cell's ability to initiate spheroids.

Sox2 in MCF-7 tumoroids = test: as above; format: cell-based, human
Experimental: as §1, §2, §3

MCF-7/dox tumoroids = test: Presto-blue cell viability, tumoroids on FiSS scaffold
Experimental: as §4, §5, §6

BT474 cells = test: Presto-blue cell viability, breast cancer cell panel; conditions: read-out: BT474 (IC50); Table 1, validation of hits in breast cancer cell panel
Experimental: (§10) All different cell lines were cultured either in regular 96 wells plate without scaffold (served as monolayer) and with FiSS (scaffold culture) in complete medium. For scaffold culture, 75% medium was carefully removed and replaced with 150 μl of fresh medium every alternate day. After five/six days of scaffold culture, cells were stained with NucBlue (Fisher Scientific) to check if tumoroids had formed. Drugs were added in triplicates with varying concentrations. The cells were incubated for 72 hrs in a humidified atmosphere under 5% CO2 at 37° C., then cell viability was measured using Presto-blue (Fisher Scientific).

MDA-MB-231 cells = test: as above; conditions: read-out: MDA-MB-231 (IC50); Table 1, validation of hits in breast cancer cell panel
Experimental: as §10

[2] = test system: CD44highCD24low cells in MCF-7 tumoroids; test: Flow cytometry of CD44highCD24low stem-like population in tumoroids; format: cell-based, human; conditions: 48 hr treatment, compared to untreated controls
Experimental: as §1
To further investigate the potential of the FiSS for use in cancer drug discovery by characterizing the BCSCs within the tumoroids, MCF-7 cells were seeded onto scaffolds in 6 well plates at 240,000 cells per well. Cells were cultured for 6 days in RPMI media to form primary tumoroids. […]

MCF-7 cells = test: Presto-blue cell viability, monolayer culture; conditions: for potency in high throughput screening: NCI Oncology set, 4 point log-dose 0.1 to 100 μM, 72 hrs
Experimental: as §7, §8, §9

[3] = test system: Second generation MCF-7 tumoroids; test: Cell Titer Glo viability of second generation tumoroids; format: cell-based, human; conditions: 48 hr treatment
Experimental: as §1

[4] = read-out: MCF7-DOX (IC50), Table 1, validation of hits in breast cancer cell panel
[5] = read-out: MCF7-WT (IC50), Table 1, validation of hits in breast cancer cell panel

SMILES: N.N.[Cl][Pt][Cl] [cisplatin]
- rank as inhibitor of HT-29 cell viability (HT-29 cells): least potent inhibitors
- rank as inhibitor of HT-29 cell viability (HT-29 tumoroids): least potent inhibitors

SMILES: Cc1c2oc3c(C)ccc(C(=O)N[C@@H]4C(=O)N[C@H](C(C)C)C(=O)N5CCC[C@H]5C(=O)N(C)CC(=O)N(C)[C@@H](C(C)C)C(=O)O[C@@H]4C)c3nc-2c(C(=O)N[C@@H]2C(=O)N[C@H](C(C)C)C(=O)N3CCC[C@H]3C(=O)N(C)CC(=O)N(C)[C@@H](C(C)C)C(=O)O[C@@H]2C)c(N)c1=O [Actinomycin D] (I: T[dV]P[Sar][NMeV] / II: T[dV]P[Sar][NMeV]; ester I:1-I:C, II:1-II:C; linker I:N-II:N via Actinocin(9to1))
- IC50 (MCF-7 tumoroids; MCF-7 tumoroids on scaffold, hypoxic conditions (CoCl2)): 1040 ± 70 nM
- IC50 (MCF-7 tumoroids; MCF-7 tumoroids on scaffold, normoxia, 6 days culture, 48 hrs treatment): 780 ± 250 nM
- IC50 (MCF-7/dox cells; MCF-7/dox monolayer, 48 hrs post-treatment, mean±SEM): 37 ± 21 nM
- potency in high throughput screening (MCF-7/dox cells; MCF-7/dox monolayer): high potency
- IC50 (MCF-7/dox cells; [4]): 50 ± 18 nM
- Sox2 expression ([1]; MCF-7/dox tumoroids treated 24 hrs at concentration based on IC50, untreated control 1.05): 0.5 pixel density
- decrease in Sox2 expression ([1]; MCF-7/dox tumoroids vs control untreated tumoroids): 2 fold
- Sox2 expression (Sox2 in MCF-7 tumoroids; MCF-7 tumoroids treated 24 hrs at concentration based on IC50, untreated control 2.05): 0.75 pixel density
- decrease in Sox2 expression (Sox2 in MCF-7 tumoroids; MCF-7 tumoroids vs control untreated tumoroids): 2 fold
- IC50 (MCF-7/dox tumoroids; MCF-7/dox tumoroids on scaffold, hypoxic conditions (CoCl2)): 2240 ± 460 nM
- IC50 (MCF-7/dox tumoroids; MCF-7/dox tumoroids on scaffold, normoxia, 6 days culture, 48 hrs treatment): 1660 ± 60 nM
- IC50 (BT474 cells): 240 ± 30 nM
- IC50 (MDA-MB-231 cells): 30 ± 10 nM
- CD44highCD24low population [2]: decreased
- IC50 (MCF-7 cells; MCF-7 monolayer, 48 hrs post-treatment, mean±SEM): 70 ± 6 nM
- potency in high throughput screening (MCF-7 cells; MCF-7 monolayer): high potency
- IC50 (MCF-7 cells; [5]): 50 ± 10 nM
- IC50 [3]: 29 nM

SMILES: COc1cccc2c1C(=O)c1c(O)c3c(c(O)c1C2=O)C[C@@](O)(C(C)=O)C[C@@H]3O[C@H]1C[C@H](N)[C@H](O)[C@H](C)O1 [daunorubicin (hydrochloride)]
- rank as inhibitor of HT-29 cell viability (HT-29 cells): most potent inhibitors
- rank as inhibitor of HT-29 cell viability (HT-29 tumoroids): most potent inhibitors

- IC50 (MCF-7 tumoroids; Homo sapiens, MCF7): 1310 ± 270 nM
- IC50 (MCF-7/dox cells; Homo sapiens, MCF7-DOX, 48 h): 4400 ± 280 nM
- IC50 (MCF-7/dox tumoroids; Homo sapiens, MCF7-DOX): 23100 ± 5350 nM
- IC50 (MCF-7 cells; Homo sapiens, MCF7, 48 h): 180 ± 8 nM
SMILES: COc1cccc2c1C(=O)c1c(O)c3c(c(O)c1C2=O)C[C@@](O)(C(=O)CO)C[C@@H]3O[C@H]1C[C@H](N)[C@H](O)[C@H](C)O1 [doxorubicin]
- fold more resistant than MCF-7 (MCF-7/dox cells; MCF-7/dox vs MCF-7 in monolayer): 24 fold

SMILES: Nc1ccn([C@@H]2O[C@H](CO)[C@@H](O)[C@@H]2O)c(=O)n1 [cytarabine]
- rank as inhibitor of HT-29 cell viability (HT-29 cells): least potent inhibitors
- rank as inhibitor of HT-29 cell viability (HT-29 tumoroids): least potent inhibitors

SMILES: COc1cccc2c1C(=O)c1c(O)c3c(c(O)c1C2=O)C[C@@](O)(C(=O)CO)C[C@@H]3O[C@H]1C[C@H](N)[C@@H](O)[C@H](C)O1 [epirubicin (hydrochloride)]
- rank as inhibitor of HT-29 cell viability (HT-29 cells): most potent inhibitors
- rank as inhibitor of HT-29 cell viability (HT-29 tumoroids): most potent inhibitors

SMILES: Nc1nc2nc[nH]c2c(=S)[nH]1 [6-thioguanine]
- rank as inhibitor of HT-29 cell viability (HT-29 cells): least potent inhibitors
- rank as inhibitor of HT-29 cell viability (HT-29 tumoroids): least potent inhibitors

SMILES: CO[C@@]12[C@H](COC(N)=O)C3=C(C(=O)C(C)=C(N)C3=O)N1C[C@@H]1N[C@@H]12 [Mitomycin C]
- potency in high throughput screening (MCF-7/dox cells; MCF-7/dox monolayer): high potency
- IC50 (MCF-7/dox cells; [4]): 120 ± 10 nM
- IC50 (BT474 cells): 30 ± 4 nM
- IC50 (MDA-MB-231 cells): 30 ± 10 nM
- potency in high throughput screening (MCF-7 cells; MCF-7 monolayer): high potency
- IC50 (MCF-7 cells; [5]): 170 ± 60 nM
